Measured values published in article PMC7914897, “Cytotoxic Potential of a-Azepano- and 3-Amino-3,4-SeCo-Triterpenoids” (International Journal of Molecular Sciences, 2021).

Key:
SW-620 (Colon cancer) = assay: NCI-60 screen (SRB, 48 h); conditions: Homo sapiens; for GI50: SW-620; for IC (TGI): SW-620, 48 h, read-out: TGI; for CC50: SW-620, read-out: LC50
TK-10 (Renal cancer) = assay: NCI-60 screen (SRB, 48 h); conditions: Homo sapiens; for GI50: TK-10; for IC (TGI): TK-10, 48 h, read-out: TGI; for CC50: TK-10, read-out: LC50
786-0 (Renal cancer) = assay: NCI-60 screen (SRB, 48 h); conditions: for GI50 / IC (TGI) / CC50: Homo sapiens; for GI50: 786-0; for IC (TGI): 786-0, 48 h, read-out: TGI; for CC50: 786-0, read-out: LC50
A498 (Renal cancer) = assay: NCI-60 screen (SRB, 48 h); conditions: Homo sapiens; for GI50: A498; for IC (TGI): A498, 48 h, read-out: TGI; for CC50: A498, read-out: LC50
SNB-75 (CNS cancer) = assay: NCI-60 screen (SRB, 48 h); conditions: Homo sapiens; for GI50: SNB-75; for IC (TGI): SNB-75, 48 h, read-out: TGI; for CC50: SNB-75, read-out: LC50
ACHN (Renal cancer) = assay: NCI-60 screen (SRB, 48 h); conditions: for GI50 / IC (TGI) / CC50: Homo sapiens; for IC (TGI): 48 h, read-out: TGI; for CC50: read-out: LC50
[1] = system: NCI-H522 (NSC lung cancer); assay: NCI-60 screen (SRB, 48 h); conditions: Homo sapiens; for GI50: NCI-H522; for IC (TGI): NCI-H522, 48 h, read-out: TGI
[2] = system: A549/ATCC (NSC lung cancer); assay: NCI-60 screen (SRB, 48 h); conditions: Homo sapiens; for GI50: A549; for IC (TGI): A549, 48 h, read-out: TGI; for CC50: A549, read-out: LC50
[3] = system: NIH 3T3 (non-malignant mouse fibroblasts); assay: SRB cytotoxicity assay, 72 h; assay type: cell-based; conditions: Mus musculus, NIH3T3; NIH 3T3, 72 h, cut-off 30 µM; read-out: EC50
Summary of the method: (§1)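 Following 24 h attachment, cells received serially diluted compounds up to 30 µM for 72 h, with DMSO kept at or below 0.5%. TCA-fixed cells were SRB-stained and absorbance recorded at 570 nm to derive EC50 values.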

DU-145 (Prostate cancer) = assay: NCI-60 screen (SRB, 48 h); conditions: Homo sapiens; for GI50: DU-145; for IC (TGI): DU-145, 48 h, read-out: TGI; for CC50: DU-145, read-out: LC50
Melanoma subpanel = assay: NCI-60 screen, subpanel; conditions: Homo sapiens; for IC (TGI): 48 h, read-out: TGI MG_MID; for GI50: read-out: GI50 MG_MID; for CC50: read-out: LC50 MG_MID
HCT-116 (Colon cancer) = assay: NCI-60 screen (SRB, 48 h); conditions: Homo sapiens; for GI50: HCT-116; for IC (TGI): read-out: TGI; for CC50: HCT-116, read-out: LC50
HT29 (Colon cancer) = assay: NCI-60 screen (SRB, 48 h); conditions: Homo sapiens; for GI50: HT-29; for IC (TGI): HT-29, 48 h, read-out: TGI
SF-268 (CNS cancer) = assay: NCI-60 screen (SRB, 48 h); conditions: Homo sapiens; for GI50: SF-268; for IC (TGI): SF-268, 48 h, read-out: TGI; for CC50: SF-268, read-out: LC50
[4] = system: A2780 (ovarian carcinoma); assay: SRB cytotoxicity assay, 72 h; assay type: cell-based, human; conditions: Homo sapiens; A2780, 72 h, cut-off 30 µM; read-out: EC50
Summary of the method: as §1

MCF-7 (breast carcinoma) = assay: SRB cytotoxicity assay, 72 h; assay type: cell-based, human; conditions: Homo sapiens, MCF7; MCF-7, 72 h, cut-off 30 µM; read-out: EC50
Summary of the method: as §1

[5] = system: HT29 (colorectal carcinoma); assay: SRB cytotoxicity assay, 72 h; assay type: cell-based, human; conditions: Homo sapiens, HT-29; HT29, 72 h, cut-off 30 µM; read-out: EC50
Summary of the method: as §1

[6] = system: FaDu (hypopharyngeal carcinoma); assay: SRB cytotoxicity assay, 72 h; assay type: cell-based, human; conditions: Homo sapiens, cut-off 30 µM, read-out: EC50
Summary of the method: as §1

[7] = system: A375 (malignant melanoma); assay: SRB cytotoxicity assay, 72 h; assay type: cell-based, human; conditions: Homo sapiens, A-375, 72 h, A375, 72 h, cut-off 30 µM; read-out: EC50
Summary of the method: as §1

T-47D (Breast cancer) = assay: NCI-60 screen (SRB, 48 h); conditions: Homo sapiens, T47D; for IC (TGI): 48 h, read-out: TGI
Ovarian Cancer subpanel = assay: NCI-60 screen, subpanel; conditions: Homo sapiens; for IC (TGI): 48 h, read-out: TGI MG_MID; for GI50: read-out: GI50 MG_MID; for CC50: read-out: LC50 MG_MID
CCRF-CEM (Leukemia) = assay: NCI-60 screen (SRB, 48 h); conditions: Homo sapiens; for IC (TGI): 48 h, read-out: TGI; for CC50: read-out: LC50
HOP-62 (NSC lung cancer) = assay: NCI-60 screen (SRB, 48 h); conditions: Homo sapiens; for GI50: HOP-62; for IC (TGI): HOP-62, 48 h, read-out: TGI
UACC-62 (Melanoma) = assay: NCI-60 screen (SRB, 48 h); conditions: Homo sapiens; for GI50: UACC-62; for IC (TGI): UACC-62, 48 h, read-out: TGI; for CC50: UACC-62, read-out: LC50

`C=C(C)[C@@H]1CC[C@]2(C)[C@H](C=CC3=C4C[C@@](C)(CO)CC[C@]4(C)CC[C@]32C)[C@@]1(C)CCCN` [Compound 20] was tested, and the GI50 (SW-620 (Colon cancer)) was 1.56 µM, the IC (TGI) (SW-620 (Colon cancer)) was 3.04 µM and the CC50 (SW-620 (Colon cancer)) was 5.93 µM. It also gave a GI50 (TK-10 (Renal cancer)) of 1.78 µM, an IC (TGI) (TK-10 (Renal cancer)) of 3.36 µM and a CC50 (TK-10 (Renal cancer)) of 6.37 µM. The “Growth % of the Most Sensitive Cell Lines” value (786-0 (Renal cancer); 786-0, 1 dose 10 µM) was −97.28%, the GI50 (786-0 (Renal cancer)) was 1.68 µM and the IC (TGI) (786-0 (Renal cancer)) was 3.44 µM. For the same compound, the CC50 (786-0 (Renal cancer)) was 7.04 µM, the GI50 (A498 (Renal cancer)) was 1.54 µM and the IC (TGI) (A498 (Renal cancer)) was 2.9 µM. The CC50 (A498 (Renal cancer)) was 5.44 µM, the GI50 (SNB-75 (CNS cancer)) was 1.53 µM and the IC (TGI) (SNB-75 (CNS cancer)) was 2.97 µM. The CC50 (SNB-75 (CNS cancer)) was 5.77 µM, the “Growth % of the Most Sensitive Cell Lines” value (ACHN (Renal cancer); 1 dose 10 µM) was −94.94% and the GI50 (ACHN (Renal cancer)) was 1.76 µM. The IC (TGI) (ACHN (Renal cancer)) was 3.14 µM, the CC50 (ACHN (Renal cancer)) was 5.6 µM and the GI50 [1] was 1.83 µM. For the same compound, the IC (TGI) [1] was 3.63 µM, the GI50 [2] was 1.6 µM and the IC (TGI) [2] was 3.18 µM. For the same compound, the CC50 [2] was 6.34 µM, the EC50 [3] was 3.46 ± 0.3 µM and the GI50 (DU-145 (Prostate cancer)) was 1.72 µM. The IC (TGI) (DU-145 (Prostate cancer)) was 3.15 µM, the CC50 (DU-145 (Prostate cancer)) was 5.78 µM and the IC (TGI) (Melanoma subpanel) was 3.22 µM. For the same compound, the GI50 (Melanoma subpanel) was 1.71 µM, the CC50 (Melanoma subpanel) was 6.09 µM and the GI50 (HCT-116 (Colon cancer)) was 1.69 µM. The IC (TGI) (HCT-116 (Colon cancer); HCT-116, 48 h) was 3.21 µM, the CC50 (HCT-116 (Colon cancer)) was 6.08 µM and the GI50 (HT29 (Colon cancer)) was 1.63 µM. It also gave an IC (TGI) (HT29 (Colon cancer)) of 3.28 µM, a CC50 (HT29 (Colon cancer); HT-29, read-out: LC50) of 6.59 µM and a GI50 (SF-268 (CNS cancer)) of 1.61 µM. It also gave an IC (TGI) (SF-268 (CNS cancer)) of 3.25 µM, a CC50 (SF-268 (CNS cancer)) of 6.56 µM and an EC50 [4] of 4.35 ± 0.2 µM. It also gave an EC50 (MCF-7 (breast carcinoma)) of 2.84 ± 0.2 µM, an EC50 [5] of 1.88 ± 0.3 µM and an EC50 [6] of 2.66 ± 0.2 µM. It also gave an EC50 [7] of 3.13 ± 0.1 µM, a GI50 (T-47D (Breast cancer)) of 1.67 µM and an IC (TGI) (T-47D (Breast cancer)) of 3.45 µM. For the same compound, the IC (TGI) (Ovarian Cancer subpanel) was 3.3 µM, the GI50 (Ovarian Cancer subpanel) was 1.69 µM and the CC50 (Ovarian Cancer subpanel) was 6.49 µM. The GI50 (CCRF-CEM (Leukemia)) was 2.12 µM, the IC (TGI) (CCRF-CEM (Leukemia)) was 5.56 µM and the CC50 (CCRF-CEM (Leukemia)) was greater than 100 µM. For the same compound, the GI50 (HOP-62 (NSC lung cancer)) was 1.98 µM, the IC (TGI) (HOP-62 (NSC lung cancer)) was 4.04 µM and the GI50 (UACC-62 (Melanoma)) was 1.78 µM. It also gave an IC (TGI) (UACC-62 (Melanoma)) of 3.17 µM and a CC50 (UACC-62 (Melanoma)) of 5.66 µM.
With `C=C(C)C1CCC2(CO)CCC3(C)C(CCC4C5(C)CCCNC(C)(C)C5CCC43C)C12` (stereo not shown) [Compound 1, Azepanobetulin] the GI50 (SW-620 (Colon cancer)) was 1.81 µM, the IC (TGI) (SW-620 (Colon cancer)) was 3.41 µM and the CC50 (SW-620 (Colon cancer)) was 6.44 µM. For the same compound, the GI50 (TK-10 (Renal cancer)) was 1.76 µM, the IC (TGI) (TK-10 (Renal cancer)) was 3.5 µM and the CC50 (TK-10 (Renal cancer)) was 6.96 µM. It also gave a GI50 (786-0 (Renal cancer)) of 1.62 µM, an IC (TGI) (786-0 (Renal cancer)) of 3.16 µM and a CC50 (786-0 (Renal cancer)) of 6.19 µM. The GI50 (A498 (Renal cancer)) was 2.17 µM, the IC (TGI) (A498 (Renal cancer)) was 5.63 µM and the CC50 (A498 (Renal cancer)) was 33 µM. For the same compound, the GI50 (SNB-75 (CNS cancer)) was 1.54 µM, the IC (TGI) (SNB-75 (CNS cancer)) was 2.91 µM and the CC50 (SNB-75 (CNS cancer)) was 5.5 µM. It also gave a GI50 (ACHN (Renal cancer)) of 1.7 µM, an IC (TGI) (ACHN (Renal cancer)) of 3.09 µM and a CC50 (ACHN (Renal cancer)) of 5.61 µM. For the same compound, the GI50 [1] was 1.65 µM, the IC (TGI) [1] was 3.42 µM and the GI50 [2] was 1.73 µM. The IC (TGI) [2] was 3.24 µM, the CC50 [2] was 6.08 µM and the EC50 [3] was 1.6 ± 0.4 µM. For the same compound, the GI50 (DU-145 (Prostate cancer)) was 3.02 µM, the IC (TGI) (DU-145 (Prostate cancer)) was 3.02 µM and the CC50 (DU-145 (Prostate cancer)) was 5.58 µM. The IC (TGI) (Melanoma subpanel) was 3.19 µM, the GI50 (Melanoma subpanel) was 1.64 µM and the CC50 (Melanoma subpanel) was 6.12 µM. The GI50 (HCT-116 (Colon cancer)) was 1.29 µM, the activity at 10 µM (HCT-116 (Colon cancer); HCT-116, 48 h, read-out: Growth % of the Most Sensitive Cell Lines) was -79% and the IC (TGI) (HCT-116 (Colon cancer); HCT-116, 48 h) was 2.63 µM. It also gave a CC50 (HCT-116 (Colon cancer)) of 5.38 µM, a GI50 (HT29 (Colon cancer)) of 1.27 µM and an IC (TGI) (HT29 (Colon cancer)) of 2.85 µM. It also gave a GI50 (SF-268 (CNS cancer)) of 1.74 µM, an IC (TGI) (SF-268 (CNS cancer)) of 3.54 µM and a CC50 (SF-268 (CNS cancer)) of 7.19 µM. It also gave an EC50 [4] of 2.39 ± 0.2 µM, an EC50 (MCF-7 (breast carcinoma)) of 1.91 ± 0.1 µM and an EC50 [5] of 1.63 ± 0.3 µM. It also gave an EC50 [6] of 2.32 ± 0.3 µM, an EC50 [7] of 2.52 ± 0.2 µM and a GI50 (T-47D (Breast cancer)) of 1.73 µM. The IC (TGI) (T-47D (Breast cancer)) was 3.71 µM, the CC50 (T-47D (Breast cancer); read-out: LC50) was 7.96 µM and the IC (TGI) (Ovarian Cancer subpanel) was 3.18 µM. For the same compound, the GI50 (Ovarian Cancer subpanel) was 1.65 µM, the CC50 (Ovarian Cancer subpanel) was 6.24 µM and the GI50 (CCRF-CEM (Leukemia)) was 2.07 µM. For the same compound, the IC (TGI) (CCRF-CEM (Leukemia)) was 4.91 µM, the CC50 (CCRF-CEM (Leukemia)) was greater than 100 µM and the GI50 (HOP-62 (NSC lung cancer)) was 1.81 µM. For the same compound, the IC (TGI) (HOP-62 (NSC lung cancer)) was 3.42 µM, the CC50 (HOP-62 (NSC lung cancer); HOP-62, read-out: LC50) was 6.46 µM and the GI50 (UACC-62 (Melanoma)) was 1.82 µM. It also gave an IC (TGI) (UACC-62 (Melanoma)) of 3.25 µM and a CC50 (UACC-62 (Melanoma)) of 5.8 µM.
